{"source": "patent US20220257764A1", "about": "“USE OF DIKETONE COMPOUND IN PHOTODYNAMIC THERAPY OR DIAGNOSIS” (BEIJING WHOLESOMETECH CO., LTD., priority 2019, published 2022)", "key": {"[1]": {"assay": "Blood routine and blood biochemical indicators of tumor-bearing mice after 2 weeks of treatment", "assay_type": "in vivo, BALB/C mice", "parameters": "Mean corpuscular hemoglobin (MCH) / Mean corpuscular volume (MCV) / Red blood cell volume distribution width (RDW) / Hematocrit (HCT) / Hemoglobin (HGB): unit not given here", "conditions": "for Hematocrit (HCT) / Hemoglobin (HGB) / Mean corpuscular hemoglobin (MCH) / Mean corpuscular hemoglobin concentration (MCHC) / Mean corpuscular volume (MCV) / Mean platelet volume (MPV) / Platelet count (PLT) / Platelet distribution width (PDW) / Plateletocrit (PCT) / Red blood cell volume distribution width (RDW) / Red blood count (RBC) / White blood cell count (WBC): after 2 weeks", "protocol": "1. Photodynamic therapy experiments on tumors were carried out by using BJMU-204 as a photosensitizer and BALB/C mice as experimental animals.\nModeling mode: BALB/C mice were divided into 5 groups in total, 11-12 mice in each group. 4T1 cells (breast cancer cells in mice) were resuscitated and subcultured to a better cell state for tumorigenesis inoculation. BALB/C mice were locally depilated and disinfected, and tumor cells were injected into the mouse mammary fat pad in situ. Tumors were formed within 7 to 10 days.\nAdministration time: drug intervention was given to mice after tumor formation, and photodynamic therapy was given by intratumoral injection every other day under the irradiation of laser with a wavelength of 450 nm to 480 nm at a light intensity of 200 mW/cm^2.\nAdministration mode: as shown in the table below, the photosensitizer was dissolved in physiological saline and injected in mice in groups 1-3 intratumorally, and the groups receiving photodynamic therapy were irradiated with light immediately after the injection.\n2. Mice in each experimental group were subjected to blood collection for serum separation and necropsy, and tumors were taken out and measured to obtain their wet weights; tumor tissues were fixed, pathological examinations were performed, and H. E. staining was used to observe the changes of tumors of the mice under an optical microscope; blood routine indicators (including white blood cell count (WBC), red blood cell count (RBC), lymphocyte count (LY), platelet count (PLT) and many other blood routine indicators) and blood biochemical indicators (including routine blood biochemical indicators) were tested and analyzed in the Laboratory of Peking University Third Hospital."}, "[2]": {"tested_on": "human cervical cancer Hela cells", "assay": "MTT cytotoxicity, Experimental Example 5", "assay_type": "cell-based", "protocol": "(1) Logarithmic phase cells were collected, the concentration of a cell suspension was adjusted, the cell suspension was added to a cell culture plate in a dose of 100 μL per well, and the cells were then added to a cell culture plate so that the density of the cells to be tested was adjusted to 1000-10000 wells (edge wells were filled with sterile PBS). […] Generally, the drug in 5 to 7 gradients was added in a dose of 100 μL per well, and 3 to 5 wells were set for each concentration of a drug. […] Cells in the experimental photosensitizer-light irradiation group were incubated for 15 min and then irradiated with light. […] After light irradiation, the cells were washed with PBS. […] After light irradiation, the cells were washed with PBS. […] If the drug could react with the MTT, centrifuging was carried out first, and then the culture solution was discarded and the cells were carefully washed twice or three times with PBS, and then the culture solution containing MTT was added. (6) The culture was terminated and the culture solution in the wells was carefully removed. (7) Dimethyl sulfoxide was added in a dose of 150 μL per well, and the plate was then shaken on a shaker at a low speed for 10 min to fully dissolve crystals. The absorbance at OD 490 nm of each well was measured with enzyme-linked immunoassay. […]"}, "B16 melanoma cell": {"tested_on": "B16 melanoma cell", "assay": "MTT toxicity to tumor cells, under light and in the dark", "assay_type": "cell-based", "conditions": "Mus musculus, under light, 450-480 nm laser, 110 mW/cm^2, 900 s", "protocol": "In this experimental example, the toxicity of the compound to tumor cells was tested by an MTT method including the following specific steps.\n(1) Logarithmic cells were collected, the concentration of a cell suspension was adjusted, the cell suspension was added to a cell culture plate in a dose of 100 μL per well, and the cells were then added to a cell culture plate so that the density of the cells to be tested was adjusted to 1000-10000 wells (edge wells were filled with sterile PBS).\n(2) The cells were incubated at 37° C. in the presence of 5% CO2 until the cells in a single layer covered the bottom of each well (96-well flat-bottom plate), and a drug in concentration gradients was added. Generally, the drug in 5 to 7 gradients was added in a dose of 100 μL per well, and 3 to 5 multi-wells were set.\n(3) The cells were randomly divided into treated groups under light and treated groups in the dark, incubated at 37° C. in the presence of 5% CO2 for 16 h to 48 h, and observed with an inverted microscope.\n(4) The cells were irradiated for 900 s with a laser having a wavelength of 450 nm to 480 nm (at an intensity of 110 mW/cm^2), and the final light dose was about 100 J/cm^2. After light irradiation, the cells were washed with PBS.\n(5) An MTT solution (5 mg/ml, 0.5% MTT) was added in a dose of 20 μL per well to further incubate the cells for 4 h. If the drug could react with the MTT, centrifuging was carried out first, and then the culture solution was discarded and the cells were carefully washed twice or three times with PBS, and then the culture solution containing MTT was added.\n(6) The culture was terminated and the culture solution in the wells was carefully removed.\n(7) Dimethyl sulfoxide was added in a dose of 150 μL per well, and the plate was then shaken on a shaker at a low speed for 10 min to fully dissolve crystals. The absorbance at OD 490 nm of each well was measured with enzyme-linked immunoassay.\n(8) Zero adjustment wells (medium, MTT, dimethyl sulfoxide) and control wells (cells, dissolving media of the same concentration, culture solution, MTT, dimethyl sulfoxide) were set at the same time."}, "[3]": {"conditions": "Control group-1: intratumoral injection 3%, no light"}, "[4]": {"conditions": "High-concentration (3%) intratumoral injection + light 10 min"}, "[5]": {"conditions": "Low-concentration (0.5%) intratumoral injection + light 10 min"}}}
{"smiles": "CC(=O)C(C)=O", "note": "[BJMU-204]", "values": [{"measurement": "Hematocrit (HCT)", "setting": "[1]; [3]", "value": "28.8 ± 5.76"}, {"measurement": "Hemoglobin (HGB)", "setting": "[1]; [3]", "value": "117 ± 26.64"}, {"measurement": "Mean corpuscular hemoglobin (MCH)", "setting": "[1]; [3]", "value": "18.43 ± 0.67"}, {"measurement": "Mean corpuscular hemoglobin concentration (MCHC)", "setting": "[1]; [3]", "value": "404.5 ± 26.01"}, {"measurement": "Mean corpuscular volume (MCV)", "setting": "[1]; [3]", "value": "45.65 ± 1.35"}, {"measurement": "Mean platelet volume (MPV)", "setting": "[1]; [3]", "value": "6.1 ± 0"}, {"measurement": "Platelet count (PLT)", "setting": "[1]; [3]", "value": "312 ± 125.04"}, {"measurement": "Platelet distribution width (PDW)", "setting": "[1]; [3]", "value": "16.2 ± 0"}, {"measurement": "Plateletocrit (PCT)", "setting": "[1]; [3]", "value": "0.24 ± 0"}, {"measurement": "Red blood cell volume distribution width (RDW)", "setting": "[1]; [3]", "value": "14.18 ± 0.75"}, {"measurement": "Red blood count (RBC)", "setting": "[1]; [3]", "value": "6.33 ± 1.36"}, {"measurement": "White blood cell count (WBC)", "setting": "[1]; [3]", "value": "352.8 ± 45.95"}, {"measurement": "Hematocrit (HCT)", "setting": "[1]; [4]", "value": "32.4 ± 12.48"}, {"measurement": "Hemoglobin (HGB)", "setting": "[1]; [4]", "value": "123 ± 40.8"}, {"measurement": "Mean corpuscular hemoglobin (MCH)", "setting": "[1]; [4]", "value": "18.43 ± 1.93"}, {"measurement": "Mean corpuscular hemoglobin concentration (MCHC)", "setting": "[1]; [4]", "value": "387.5 ± 40.38"}, {"measurement": "Mean corpuscular volume (MCV)", "setting": "[1]; [4]", "value": "47.5 ± 1.95"}, {"measurement": "Mean platelet volume (MPV)", "setting": "[1]; [4]", "value": "6.63 ± 0.76"}, {"measurement": "Platelet count (PLT)", "setting": "[1]; [4]", "value": "267 ± 167.28"}, {"measurement": "Platelet distribution width (PDW)", "setting": "[1]; [4]", "value": "15.13 ± 0.76"}, {"measurement": "Plateletocrit (PCT)", "setting": "[1]; [4]", "value": "0.24 ± 0.12"}, {"measurement": "Red blood cell volume distribution width (RDW)", "setting": "[1]; [4]", "value": "14.58 ± 0.84"}, {"measurement": "Red blood count (RBC)", "setting": "[1]; [4]", "value": "6.81 ± 2.51"}, {"measurement": "White blood cell count (WBC)", "setting": "[1]; [4]", "value": "136.8 ± 31.45"}, {"measurement": "Hematocrit (HCT)", "setting": "[1]; [5]", "value": "32.64 ± 12.12"}, {"measurement": "Hemoglobin (HGB)", "setting": "[1]; [5]", "value": "141.6 ± 42.72"}, {"measurement": "Mean corpuscular hemoglobin (MCH)", "setting": "[1]; [5]", "value": "20.1 ± 1.84"}, {"measurement": "Mean corpuscular hemoglobin concentration (MCHC)", "setting": "[1]; [5]", "value": "447 ± 48.54"}, {"measurement": "Mean corpuscular volume (MCV)", "setting": "[1]; [5]", "value": "45.04 ± 1.21"}, {"measurement": "Mean platelet volume (MPV)", "setting": "[1]; [5]", "value": "6.23 ± 0.61"}, {"measurement": "Platelet count (PLT)", "setting": "[1]; [5]", "value": "494.4 ± 387.6"}, {"measurement": "Platelet distribution width (PDW)", "setting": "[1]; [5]", "value": "13.37 ± 1.47"}, {"measurement": "Plateletocrit (PCT)", "setting": "[1]; [5]", "value": "0.48 ± 0.24"}, {"measurement": "Red blood cell volume distribution width (RDW)", "setting": "[1]; [5]", "value": "13.78 ± 0.59"}, {"measurement": "Red blood count (RBC)", "setting": "[1]; [5]", "value": "7.22 ± 2.62"}, {"measurement": "White blood cell count (WBC)", "setting": "[1]; [5]", "value": "193.5 ± 70"}, {"measurement": "number of platelets and white blood cells in the blood", "setting": "[1]; treated groups vs control groups (p<0.001), after 2 weeks of treatment", "value": "decreases"}, {"measurement": "liver, kidney and blood toxicity", "setting": "[1]; tumor-bearing mice, continuous treatment for 14 days at high or low concentration therapeutic doses", "value": "will not cause liver, kidney and blood toxicity"}, {"measurement": "cytotoxicity to Hela cells", "setting": "[2]; given in the dark", "value": "relatively low cytotoxicity"}, {"measurement": "cytotoxicity to Hela cells", "setting": "[2]; given under blue light, 450-480 nm, 110 mW/cm^2, 900 s", "value": "relatively high cytotoxicity"}, {"measurement": "IC50", "setting": "B16 melanoma cell", "value": "500 ± 30", "unit": "nM"}]}
